Measurements from patent publication US20060293242A1, “Transporting of taxoid derivatives through the blood brain barrier” (priority 2001, published 2006).
Residues, ends and D or L forms follow the SMILES beside them. *: point of attachment. Paclitaxel(2'-O-succinyl) = CC(=O)O[C@H]1C(=O)[C@@]2(C)[C@H]([C@H](OC(=O)c3ccccc3)[C@]3(O)C[C@H](OC(=O)[C@H](OC(=O)CCC(=O)*)[C@@H](NC(=O)c4ccccc4)c4ccccc4)C(C)=C1C3(C)C)[C@]1(OC(C)=O)CO[C@@H]1C[C@@H]2O

Key:
[1] = tested on: SK-N-SH (neuroblastome) cells; experiment: Cytotoxicity assay (MTT), SK-N-SH cells; type: cell-based; settings: Homo sapiens, MTT test, read-out: IC50 (concentration resulting in 50% inhibition of growth)
Procedure: (§1) 9 L (glioblastome), MCF-7 and MDA-MB-435 (breast cancer), and SK-N-SH (neuroblastome) cells were obtained commercially from ATCC. The cells are seeded at approximately 10^4 cells per well, 24 h before addition of the products. They are then at 60-80% confluence on the day of the experiment. The cells are maintained in culture at 37° C. in an atmosphere at 95% humidity and 5% CO2 in an OptiMem® medium.
(§2) The cells are incubated either with free Taxol or with the vectorized Taxol at increasing concentrations for 48 hours to 72 hours. At the end of the culturing period, MTT (3-(4,5-dimethylthiazole-2-yl)-2,5-diphenyltetrazolium bromide) is added to the wells and the culture plates are then incubated for 4 hours in an incubator. The resulting crystalline deposit of formazan is then dissolved by addition of 200 μl of DMF/SDS. The optical density (OD) is measured at 550 nm (reference 630 nm) using a microplate reader. […]
(§3) The sensitivity of the 9L, MCF-7, MDA-MB-435 and SK-N-SH cells to free Taxol and to the vectorized Taxol was measured by the MTT test under the experimental conditions defined above for which the relationship between the optical density and the number of viable cells is linear.
(§4) These cells are incubated with increasing concentrations of product and, after […] of incubation, cell survival is measured by the MTT test.

[2] = tested on: MCF-7 (breast cancer) cells; experiment: Cytotoxicity assay (MTT), MCF-7 cells; type: cell-based; settings: Homo sapiens, MCF7, MTT test, read-out: IC50 (concentration resulting in 50% inhibition of growth)
Procedure: as §1, §2, §3, §4

[3] = tested on: MDA-MB-435 (breast cancer) cells; experiment: Cytotoxicity assay (MTT), MDA-MB-435 cells; type: cell-based; settings: Homo sapiens, MTT test, read-out: IC50 (concentration resulting in 50% inhibition of growth)
Procedure: as §1, §2, §3, §4

9 L (glioblastome) cells = experiment: Cytotoxicity assay (MTT), 9L cells; type: cell-based; settings: for IC50: 9L cells, MTT test, read-out: IC50 (concentration resulting in 50% inhibition of growth)
Procedure: as §1
The cells are incubated either with free Taxol or with the vectorized Taxol at increasing concentrations for 48 hours to 72 hours. At the end of the culturing period, MTT (3-(4,5-dimethylthiazole-2-yl)-2,5-diphenyltetrazolium bromide) is added to the wells and the culture plates are then incubated for 4 hours in an incubator. The resulting crystalline deposit of formazan is then dissolved by addition of 200 μl of DMF/SDS. The optical density (OD) is measured at 550 nm (reference 630 nm) using a microplate reader.
Graphic representation of the percentages of OD of the treated wells as a function of the concentration of products makes it possible to determine the IC50. This corresponds to the concentration of the product which inhibits 50% of growth.
as §3, §4

blood/brain barrier = experiment: In situ brain perfusion (BBB penetration, Kin); type: in vivo; settings: mouse, in situ brain perfusion for 60 seconds in buffer, 14C-labelled Taxol, FIG. 2
Procedure: Mice (20-25 g, Iffa-Credo, Arbresle, France) are anesthetized. After exposure of the common carotid, the right external carotid artery is ligated at the level of the bifurcation with the internal carotid and the common carotid is ligated between the heart and the site of implantation of the catheter (polyethylene catheter, ID: 0.76). This catheter, prefilled with a solution of heparin (100 units/ml), is inserted into the common carotid. The mice are perfused with the perfusion buffer (128 mM NaCl, 24 mM NaHCO3, 4.2 mM KCl, 2.4 mM NaH2PO4, 1.5 mM CaCl2, 0.9 mM MgSO4 and 9 mM D-glucose) This buffer is filtered and then a mixture containing 95% 02/5% CO2 is bubbled in order to maintain the pH close to 7.4 and to provide the brain with oxygen during the perfusion.
The mice are perfused with the buffer containing free Taxol or vectorized Taxol. In each product, the Taxol is radiolabeled with carbon 14 (specific activity: 55 mCi/mmole, Sigma, France). Just before the beginning of perfusion, the heart is stopped by sectioning the ventricles, in order to avoid reflux of the perfusate during perfusion. The right hemisphere is then perfused at a rate of 10 ml/min for 60 seconds, after which the mouse is decapitated. The amount of radioactivity in the right hemisphere is then measured and the brain penetration (Kin) is calculated. […]

SMILES | IC50 [1] [µM] | IC50 [2] [µM] | IC50 [3] [µM] | IC50 (9 L (glioblastome) cells) [µM] | solubility (physchem) [µg/mL] | increase of passage into the brain (Kin) versus free Taxol (blood/brain barrier) | times more active than the free Taxol (9 L (glioblastome) cells; 9 L cell line, ratio of IC50)
CC(=O)O[C@H]1C(=O)[C@@]2(C)[C@H]([C@H](OC(=O)c3ccccc3)[C@]3(O)C[C@H](OC(=O)[C@H](O)[C@@H](NC(=O)c4ccccc4)c4ccccc4)C(C)=C1C3(C)C)[C@]1(OC(C)=O)CO[C@@H]1C[C@@H]2O [Free Taxol, paclitaxel] | 0.087 | 0.042 | 0.095 | 3.5 |  |  | 
CC(=O)O[C@H]1C(=O)[C@@]2(C)[C@H]([C@H](OC(=O)c3ccccc3)[C@]3(O)C[C@H](OC(=O)[C@H](OC(=O)CCC(=O)N[C@@H](CCCNC(=N)N)C(=O)N[C@@H](CCCNC(=N)N)C(=O)N[C@@H](CC(C)C)C(=O)N[C@@H](CO)C(=O)N[C@@H](Cc4ccc(O)cc4)C(=O)N[C@@H](CO)C(=O)N[C@@H](CCCNC(=N)N)C(=O)N[C@@H](CCCNC(=N)N)C(=O)N[C@@H](CCCNC(=N)N)C(=O)N[C@@H](Cc4ccccc4)C(=O)O)[C@@H](NC(=O)c4ccccc4)c4ccccc4)C(C)=C1C3(C)C)[C@]1(OC(C)=O)CO[C@@H]1C[C@@H]2O [Taxol-SynB3] ({Paclitaxel(2'-O-succinyl)}-RRLSYSRRRF-OH; N-terminus and C-terminus assumed) |  |  |  | 0.6 | > 10000 | approximately 12 fold | approximately 5 times
